Assay results as given in US4131727A, “Method of purifying alcohol dehydrogenase and affinity resin therefor” (President and Fellows of Harvard College, priority 1978, dated 1978).

Key:
[1] = system: human liver alcohol dehydrogenase; assay: Inhibition of alcohol dehydrogenase activity of starting human liver; type: biochemical; conditions: 33 micromolar 4-methyl-pyrazole, pH 10, frozen human liver starting material
Protocol: Starting with 100 g frozen human liver having a specific activity of pH 10 of about 0.05 I.U./mg and low inhibition (~ 75%) by 33 micromolar 4-methyl-pyrazole at pH 10 as well as high intensity of stain for the anodic band on starch gel electrophoresis, the liver was homogenized in 2.5 volumes water at 4° C., centrifuged for 30 min. at 30,000 rpm in a 30 rotor to provide 240 ml of clear supernatant assaying at 58 I.U. of pyrazole-insensitive activity with a specific activity of 0.002 I.U./mg.

[2] = system: other forms of liver alcohol dehydrogenase; assay: Inhibition of the other (pyrazole-sensitive) forms of liver alcohol dehydrogenase; type: biochemical, human; conditions: 0.2 mM 4-methylpyrazole, 100 mM ethanol, remainder of the purified enzyme forms
From the text: (§1) However, purification of these enzymes has been a complicated and difficult procedure. […] Elution is preferably carried out with pyrazole solution or with a lower alkanol having at least two carbon atoms, e.g., ethanol, 1-propanol, 1-butanol, 1-pentanol, and the like. Further purification and separation of isoenzymes from the bound portion can be achieved by alcohol gradient elution. The alcohol dehydrogenase of the bound portion can be separated from the NAD after elution, if desired, by conventional dialysis procedures. […] The anodic band of liver alcohol dehydrogenase, as identified by Li et al., Biochem. Biophys. Res. Comm.

[3] = target: T1, II-ADH (anodic band of liver alcohol dehydrogenase) (Homo sapiens, UniProt P08319); assay: Inhibition of purified II-ADH (anodic band, pyrazole-insensitive liver alcohol dehydrogenase) activity; type: biochemical; conditions: 33 micromolar 4-methyl-pyrazole, product after agarose-AMP
T1 construct: Starting with 100 g frozen human liver; from tissue; host or cells: human liver (frozen)
T1 sequence (P08319 2-380 limits assumed): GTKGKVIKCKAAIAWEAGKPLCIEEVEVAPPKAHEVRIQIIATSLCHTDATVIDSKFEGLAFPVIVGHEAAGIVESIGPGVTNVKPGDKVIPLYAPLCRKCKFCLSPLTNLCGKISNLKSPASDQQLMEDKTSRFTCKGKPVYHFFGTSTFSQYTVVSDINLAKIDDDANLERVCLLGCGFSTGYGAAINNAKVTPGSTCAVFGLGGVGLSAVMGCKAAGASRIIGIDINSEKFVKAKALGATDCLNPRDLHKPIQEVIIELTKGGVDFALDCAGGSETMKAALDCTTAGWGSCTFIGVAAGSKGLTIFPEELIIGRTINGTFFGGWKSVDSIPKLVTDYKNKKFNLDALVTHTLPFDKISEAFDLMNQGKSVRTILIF
From the text: as §1

alcohol dehydrogenase = assay: Dissociation of binary complex of alcohol dehydrogenase with NAD; type: binding; conditions: read-out: dissociation constant of the complex
From the text: The binary complex, in which two molecules of NAD are complexed with 1 molecule of alcohol dehydrogenase, can be prepared simply by mixing NAD with the crude extract of alcohol dehydrogenase. In order to ensure that substantially all of the alcohol dehydrogenase is present in solution in the form of the binary complex, it is desirable to employ an excess of the amount of NAD over that theoretically required. […] Although larger amounts of NAD can be used, there is no advantage in using a concentration above about 10^-3 molar since optimum results are achieved at that concentration with no further improvement even when the concentration of the NAD is 10^-2 molar or even higher, the results being approximately the same at these higher concentrations. The aqueous medium containing the binary complex may be acidified if desired. Satisfactory results are obtained at pH 8.0, but may be improved by decreasing the pH to approximately 7.5 in order to achieve optimum results; however, no further improvement is achieved by further lowering of the pH, the results remaining about the same even at a pH below 6.

Row | inhibition [1] | inhibition of activity [2] | inhibition (in words) [3] | Kd (alcohol dehydrogenase) | Structure (SMILES)
1 | ~ 75% | more than 90% | virtually uninhibited |  | Cc1cn[nH]c1 [4-methylpyrazole]
2 |  |  |  | ~1000 nM | NC(=O)c1ccc[n+]([C@@H]2O[C@H](COP(=O)([O-])OP(=O)(O)OC[C@H]3O[C@@H](n4cnc5c(N)ncnc54)[C@H](O)[C@@H]3O)[C@@H](O)[C@H]2O)c1 [NAD]
